Laboratory results: patent publication US20070270371A1, “Dosing and scheduling of oligomers” (priority 2006, published 2007)
{FAM} = fluorescein (FAM) label

What was measured:
[1] = system: PC-3-Bcl-2 xenograft tumors; details: mouse, in vivo
Description: When the average tumor size was 65 mm^3, animals were randomized and the right flank of the xenograft tumor bearing mice were pre-treated with 5 Gy X-ray prior to administration of fluoresceinated G3139 oligonucleotide intravenously at a low dose of 6 mg/kg, daily for 5 days (top left panel); at a high dose of 10 mg/kg on given intermittently on days 1, 3, and 5 (top middle panel); a single dose of 30 mg/kg on the same day of X-ray pre-treatment (top right panel); and non-treated left flank bearing xenograft tumor (bottom 3 panels). Each mouse received a total dose of 30 mg/kg fluorescent G3139.
On day 8, animals were sacrificed, subcutaneous and organs were resected, and counterstained with DAPI as an internal staining control for nucleus staining. The resected tissues were processed as in Example 1 described above and fluorescence intensity was recorded using a stereomicroscope (Zeiss, 40) and spot camera (Qimaging). The signal intensity was recorded in three areas of each sample and quantified using MCID Elite (Imaging Research) and averaged to yield the reported intensities.

[2] = in vivo, sc; cited from earlier work
[3] = human, in vivo, iv; cited from earlier work
[4] = system: A549 NSCLC xenograft tumors; assay: Tumor growth of NSCLC xenografts under G3139 dosing schedules (Example 4); format: in vivo, mice
Description: In vivo tumor model: NSCLC xenograft tumors were established in the flank of male athymic nude mice by injecting subcutaneously 5 to 9×10^6 A549 tumor cells. […] Twenty mg/kg injections every other days for 4 weeks (total 14 days) were also carried. At 30 mg/kg and 40 mg/kg, mice were injected every two- or three-day intervals respectively. (FIG. 6). The tumor growth were measured 15 - 55 days post-implantation and the tumor volumes were calculated based on the formula: [(width)^2×length]/2. […] Tumors in mice injected with higher doses but interminttently with 2-3 days intervals also grew slower than mice treated with daily doses at lower doses.

Row | Substance | persistence of the oligonucleotide in tumor after administration of radiation and G3139 ([1]; iv, 30 mg/kg) [days] | mean plasma half-life for elimination [2] [h] | steady state plasma levels observed after the beginning of infusion [2] [h] | plasma half life [3] | time until plasma concentration becomes undetectable [3] [h] | tumor growth ([4]; 20 mg/kg IP every other day vs 10 mg/kg daily (total 280 mg/kg), 15-55 days post-implantation) | tumor growth ([4]; higher doses intermittently at 2-3 day intervals vs daily lower doses) | staining of tumor cells [1]
1 | oblimersen [G3139] | 7 | 7.46 | 48 | about 60 minutes | ≤ 4 | grew slower | grew slower | 
2 | FAM-G3139: fluorescent G3139, F - TCTCCCAGCGTGCGCCAT-3′, phosphorothioate oligonucleotide targeting bcl-2 (all phosphorothioate, 5' {FAM}, sugars by position and methylation of C not given here) |  |  |  |  |  |  |  | no visible staining
